These results are taken from ChEMBL document CHEMBL2146392, “Minutissamides E-L, antiproliferative cyclic lipodecapeptides from the cultured freshwater cyanobacterium cf. Anabaena sp” (Bioorg Med Chem, 2012).

Activity calls are given as the source filed them. The rule behind the calls is not given here.

For assay [1], the system named is Mycolicibacterium smegmatis. As to the kind of experiment: Antibacterial activity against Mycobacterium smegmatis at 10 ug/ml. The format is functional, organism-based.
For assay [2], the system named is Staphylococcus aureus. The assay can be described thus: Antibacterial activity against Staphylococcus aureus at 10 ug/ml. The format is functional, organism-based.
Assay [3] deals with Enterococcus faecalis. As to the kind of experiment: Antibacterial activity against Enterococcus faecalis at 10 ug/ml. The format is functional, organism-based.
For assay [4], the system named is Streptococcus pneumoniae. As to the kind of experiment: Antibacterial activity against Streptococcus pneumoniae at 10 ug/ml. Format: functional, organism-based.
The test system of assay [5] is Acinetobacter baumannii. The assay can be described thus: Antibacterial activity against Acinetobacter baumannii at 10 ug/ml. Format: functional, organism-based.
The subject of assay [6] is Escherichia coli. As to the kind of experiment: Antibacterial activity against Escherichia coli at 10 ug/ml. The format is functional, organism-based.
In assay [7] the test system is Pseudomonas aeruginosa. The assay can be described thus: Antibacterial activity against Pseudomonas aeruginosa at 10 ug/ml. The format is functional, organism-based.
Assay [8] deals with MDA-MB-435. As to the kind of experiment: Antiproliferative activity against human MDA-MB-435 cells assessed as cell viability at 1 ng/ml after 96 hrs. Format: functional. The conditions noted are these: MDA-MB-435, 96 h, read-out: Activity.

Regarding `C/C=C1/NC(=O)[C@H](C(C)C)NC(=O)[C@H](O)[C@@H]([C@@H](C)CCCCCCCCCCC(=O)CCC)NC(=O)[C@@H]2CCCN2C(=O)[C@H](CC(N)=O)N(C)C(=O)[C@H]([C@@H](C)OC)NC(=O)CNC(=O)[C@H](CCC(N)=O)NC(=O)[C@H]([C@@H](C)O)NC(=O)[C@H]([C@@H](C)O)NC1=O`, the result in assay [1], in assay [2], in assay [3], in assay [4], in assay [5] and in assay [6] was inactive. Also, the result in assay [7] was inactive.

For `C/C=C1/NC(=O)[C@H](C(C)C)NC(=O)[C@H](O)[C@@H]([C@@H](C)CCCCCCCCCCC(=O)CCC)NC(=O)[C@@H]2CCCN2C(=O)[C@H](CC(N)=O)N(C)C(=O)[C@H]([C@@H](C)OC)NC(=O)[C@@H](C)NC(=O)[C@H](CCC(N)=O)NC(=O)[C@H]([C@@H](C)O)NC(=O)[C@H]([C@@H](C)O)NC1=O`, the outcome in assay [1], in assay [2], in assay [3], in assay [4], in assay [5] and in assay [6] was inactive. Also, in assay [7], the outcome was inactive.

For `C/C=C1/NC(=O)[C@H](C(C)C)NC(=O)[C@H](O)[C@@H]([C@@H](C)CCCCCCCC(Cl)CC)NC(=O)[C@@H]2CCCN2C(=O)[C@H](CC(N)=O)N(C)C(=O)[C@H]([C@@H](C)OC)NC(=O)CNC(=O)[C@H](CCC(N)=O)NC(=O)[C@H]([C@@H](C)O)NC(=O)[C@H]([C@@H](C)O)NC1=O` (stereo partly drawn), the outcome in assay [1], in assay [2], in assay [3], in assay [4], in assay [5] and in assay [6] was inactive. Also, the result in assay [7] was inactive.

For the compound `C/C=C1/NC(=O)[C@H](C(C)C)NC(=O)[C@H](O)[C@@H]([C@@H](C)CCCCCCCCCCC(O)CCC)NC(=O)[C@@H]2CCCN2C(=O)[C@H](CC(N)=O)N(C)C(=O)[C@H]([C@@H](C)OC)NC(=O)[C@@H](C)NC(=O)[C@H](CCC(N)=O)NC(=O)[C@H]([C@@H](C)O)NC(=O)[C@H]([C@@H](C)O)NC1=O` (stereo partly drawn), the result in assay [1], in assay [2], in assay [3], in assay [4], in assay [5] and in assay [6] was inactive. In addition, in assay [7], the outcome was inactive.

As for `CC[C@]1(O)C[C@@H]2CN(CCc3c([nH]c4ccccc34)[C@@](C(=O)OC)(c3cc4c(cc3OC)N(C)[C@H]3[C@@](O)(C(=O)OC)[C@H](OC(C)=O)[C@]5(CC)C=CCN6CC[C@]43[C@@H]65)C2)C1` [VINBLASTINE], the viability at 0.001 µg/mL in assay [8] stood at 49%.

In the case of `C/C=C1/NC(=O)[C@H](C(C)C)NC(=O)[C@H](O)[C@@H]([C@@H](C)CCCCCCCCCCC(=O)CCC)NC(=O)[C@@H]2CCCN2C(=O)[C@H](CC(N)=O)N(C)C(=O)[C@H]([C@@H](C)OC)NC(=O)[C@@H](C)NC(=O)[C@H](CCC(N)=O)NC(=O)[C@H](C(C)C)NC(=O)[C@H]([C@@H](C)O)NC1=O`, the outcome in assay [1], in assay [2], in assay [3], in assay [4], in assay [5] and in assay [6] was inactive. In assay [7], the result was inactive.

Turning to `C/C=C1/NC(=O)[C@H](C(C)C)NC(=O)[C@H](O)[C@@H]([C@@H](C)CCCCCCCC(Cl)CC)NC(=O)[C@@H]2CCCN2C(=O)[C@H](CC(N)=O)N(C)C(=O)[C@H]([C@@H](C)OC)NC(=O)[C@@H](C)NC(=O)[C@H](CCC(N)=O)NC(=O)[C@H]([C@@H](C)O)NC(=O)[C@H]([C@@H](C)O)NC1=O` (stereo partly drawn), the outcome in assay [1], in assay [2], in assay [3], in assay [4], in assay [5] and in assay [6] was inactive. Also, in assay [7], the outcome was inactive.
